# Measurements taken from patent US8389679B2, “Targeted antimicrobial moieties” (priority 2009, dated 2013).
# Entries after “also recorded” stand apart in the source; their conditions may differ.
# Test system: target microorganisms
# Test: Screen of synthesized peptides for binding to target microorganisms (targeting peptides, Tables 2 and 3)
# Conditions: microorganism(s) the targeting peptide was identified as binding to (Table 3)
# Experimental: Once noted, these peptides were batch synthesized on a multiplex peptide synthesizer, yielding 5-10 mg of each peptide that could readily be screened for biological activity (e.g., binding activity and/or antimicrobial activity.
# Other suitable targeting peptides include the peptides that have been identified as binding to particular target organisms as shown in Table 3 and/or Table 4.
row,Substance,Target(s)
1,1T-135 (FESLLPQATKKIVNNKGSKINKIF; synthetic novel tartgeting peptide IT-135),"A. naeslundii, P. gingivalis; also recorded: S. epidermidis,; also recorded: S. gordonii, S. mitis, S. mutans,; also recorded: S. oralis, S. salivarious,; also recorded: S. sanguinis"
2,1T-136 (ELLTQIRLALLYSVNEW; synthetic novel tartgeting peptide IT-136),"A. naeslundii, F. nucleatum,; also recorded: P. gingivalis,; also recorded: S. epidermidis, S. gordonii,; also recorded: S. mitis, S. mutans,; also recorded: S. oralis, S. salivarious,; also recorded: S. sanguinis"
3,1T-137 (PLNFYRAVKENRLPLSEKNINDFTNIKLKVSPKLINLLQESSIFYNFSPKKRNTN; synthetic novel tartgeting peptide IT-137),"A. naeslundii, F. nucleatum,; also recorded: P. gingivalis; also recorded: S. epidermidis,; also recorded: S. gordonii, S. mitis, S. mutans,; also recorded: S. oralis, S. salivarious,; also recorded: S. sanguinis"
4,1T-138 (YPNEYCIFLENLSLEELKEIKAINGETLNLEEIINERKNLKD; synthetic novel tartgeting peptide IT-138),"A. naeslundii, F. nucleatum,; also recorded: P. gingivalis; also recorded: S. epidermidis,; also recorded: S. gordonii, S. mitis, S. mutans,; also recorded: S. oralis, S. salivarious,; also recorded: S. sanguinis"
5,1T-139 (AVAGAAVGALLGNDARSTAVGAAIGGALGAGAGELTKNK; synthetic novel tartgeting peptide IT-139),"A. naeslundiiS. gordonii,; also recorded: S. mitis, S. mutans, S. oralis"
6,1T-140 (IKGTIAFVGEDYVEIRVDKGVKLTFRKSAIANVINNNQQ; synthetic novel tartgeting peptide IT-140),"A. naeslundii, F. nucleatum,; also recorded: P. gingivalis; also recorded: S. epidermidis,; also recorded: S. gordonii, S. mitis, S. mutans,; also recorded: S. oralis, S. salivarious,; also recorded: S. sanguinis"
7,1T-141 (KKFIILLFILVQGLIFSATKTLSDIIAL; synthetic novel tartgeting peptide IT-141),"F. nucleatum, P. gingivalis; also recorded: S. epidermidis,; also recorded: S. gordonii, S. mitis, S. mutans,; also recorded: S. oralis, S. sanguinis"
8,1T-142 (FTQGIKRIVLKRLKED; synthetic novel tartgeting peptide IT-142),"A. naeslundii, F. nucleatum,; also recorded: P. gingivalis,; also recorded: T. denticolaS. gordonii,; also recorded: S. mitis, S. mutans, S. oralis,; also recorded: S. salivarious, S. sanguinis"
9,1T-143 (MPKRHYYKLEAKALQFGLPFAYSPIQLLK; synthetic novel tartgeting peptide IT-143),"A. naeslundii, F. nucleatum,; also recorded: P. gingivalis; also recorded: S. epidermidis,; also recorded: S. gordonii, S. mitis, S. mutans,; also recorded: S. oralis, S. salivarious,; also recorded: S. sanguinis"
10,1T-144 (IIELHPKSWTQDWRCSFL; synthetic novel tartgeting peptide IT-144),"A. naeslundii, F. nucleatum,; also recorded: P. gingivalis,; also recorded: T. denticolaS. gordonii,; also recorded: S. mitis, S. mutans, S. oralis,; also recorded: S. salivarious, S. sanguinis"
11,1T-145 (VEAGKRNISLENIEKISKGLGISISELFKYIEEGEDKIG; synthetic novel tartgeting peptide IT-145),"S. mitis, S. mutans, S. oralis"
12,1T-146 (RNSADNQTKIDKIRIDISLWDEHLNIVKQGK; synthetic novel tartgeting peptide IT-146),"A. naeslundii, F. nucleatum,; also recorded: P. gingivalis,; also recorded: T. denticolaS. gordonii,; also recorded: S. mitis, S. mutans, S. oralis,; also recorded: S. salivarious, S. sanguinis"
13,1T-147 (GVENRRFYERDVSKVSMMTSEAVAPRGGSK; synthetic novel tartgeting peptide IT-147),"A. naeslundii, F. nucleatum,; also recorded: P. gingivalis,; also recorded: T. denticolaS. gordonii,; also recorded: S. mitis, S. mutans, S. oralis,; also recorded: S. salivarious, S. sanguinis"
14,1T-148 (IVELDDTTILERALSMLGEANA; synthetic novel tartgeting peptide IT-148),"A. naeslundii, F. nucleatum,; also recorded: P. gingivalis,; also recorded: T. denticolaS. gordonii,; also recorded: S. mitis, S. mutans, S. oralis,; also recorded: S. salivarious, S. sanguinis"
15,1T-149 (SVRAVKPIDETVARHFPGDFIVN; synthetic novel tartgeting peptide IT-149),"A. naeslundii, F. nucleatum,; also recorded: P. gingivalis,; also recorded: T. denticolaS. gordonii,; also recorded: S. mitis, S. mutans, S. oralis,; also recorded: S. salivarious, S. sanguinis"
16,1T-150 (YINRRLKKAFSDADIKEAPAEFYEELRRVQYV; synthetic novel tartgeting peptide IT-150),"A. naeslundii, F. nucleatum,; also recorded: P. gingivalis,; also recorded: T. denticolaS. gordonii,; also recorded: S. mitis, S. mutans, S. oralis,; also recorded: S. salivarious, S. sanguinis"
17,1T-151 (SVRAVKPIDEIVAWHFPGDFIVN; synthetic novel tartgeting peptide IT-151),"A. naeslundii, F. nucleatum,; also recorded: P. gingivalis,; also recorded: T. denticolaS. gordonii,; also recorded: S. mitis, S. mutans, S. oralis,; also recorded: S. salivarious, S. sanguinis"

row,Substance,Target(s)
1,1T-152 (YVSADESAYNHIVTDDIPLADRRIEAVQQ; synthetic novel tartgeting peptide IT-152),"A. naeslundii, F. nucleatum,; also recorded: P. gingivalis; also recorded: S. epidermidis,; also recorded: S. gordonii, S. mitis, S. mutans,; also recorded: S. oralis, S. salivarious,; also recorded: S. sanguinis"
2,1T-153 (YIACPGYFY; synthetic novel tartgeting peptide IT-153),"A. naeslundii, F. nucleatum,; also recorded: P. gingivalis; also recorded: S. epidermidis,; also recorded: S. gordonii, S. mitis, S. mutans,; also recorded: S. oralis, S. salivarious,; also recorded: S. sanguinis"
3,1T-154 (YFSFLEIVGMARR; synthetic novel tartgeting peptide IT-154),P. gingivalis
4,1T-155 (LKLAFGVYPFQAMSQSDTAVSERNVLWR; synthetic novel tartgeting peptide IT-155),"A. naeslundii, F. nucleatum,; also recorded: P. gingivalis; also recorded: S. epidermidis,; also recorded: S. gordonii, S. mitis, S. mutans,; also recorded: S. oralis, S. salivarious,; also recorded: S. sanguinis"
5,1T-156 (GRFQISIRGEEKSKVKVQGKGTFTDRNTT; synthetic novel tartgeting peptide IT-156),"A. naeslundii, F. nucleatum,; also recorded: P. gingivalis,; also recorded: T. denticolaS. gordonii,; also recorded: S. mitis, S. mutans, S. oralis,; also recorded: S. salivarious, S. sanguinis"
6,1T-157 (RRFRKTTENREKSKNKKAVLGLSTTSTASY; synthetic novel tartgeting peptide IT-157),"A. naeslundii, F. nucleatum,; also recorded: P. gingivalis,; also recorded: T. denticolaS. gordonii,; also recorded: S. mitis, S. mutans, S. oralis,; also recorded: S. salivarious, S. sanguinis"
7,1T-158 (WENKPSPLGSIKKLQGLVYRLIGYRHFWV; synthetic novel tartgeting peptide IT-158),"A. naeslundii, F. nucleatum,; also recorded: P. gingivalis; also recorded: S. epidermidis,; also recorded: S. gordonii, S. mitis, S. mutans,; also recorded: S. oralis, S. salivarious,; also recorded: S. sanguinis"
8,1T-159 (IFSLHHFALICSEMGTFAVSKRAKYKWEVL; synthetic novel tartgeting peptide IT-159),P. gingivalis
9,1T-160 (AQYKYINKLLN; synthetic novel tartgeting peptide IT-160),"A. naeslundii, F. nucleatum,; also recorded: P. gingivalis,; also recorded: T. denticolaS. gordonii,; also recorded: S. mitis, S. mutans, S. oralis,; also recorded: S. salivarious, S. sanguinis"
10,1T-161 (NKVLQVEVMWDGSVVGRPAGVISIKSSKKG; synthetic novel tartgeting peptide IT-161),"A. naeslundii, F. nucleatum,; also recorded: P. gingivalis; also recorded: S. epidermidis,; also recorded: S. gordonii, S. mitis, S. mutans,; also recorded: S. oralis, S. salivarious,; also recorded: S. sanguinis"
11,1T-162 (QKAKEESDRKAAVSYNGFHRVNVVSIPK; synthetic novel tartgeting peptide IT-162),"A. naeslundii, F. nucleatum,; also recorded: P. gingivalis,; also recorded: T. denticolaS. gordonii,; also recorded: S. mitis, S. mutans, S. oralis,; also recorded: S. salivarious, S. sanguinis"
12,1T-163 (MENILIYIPMVLSPFGSGILLFLGKDRRYML; synthetic novel tartgeting peptide IT-163),"A. naeslundii, F. nucleatum,; also recorded: P. gingivalis; also recorded: S. epidermidis,; also recorded: S. gordonii, S. mitis, S. mutans,; also recorded: S. oralis, S. salivarious,; also recorded: S. sanguinis"
13,1T-164 (KKSHSQGKRKLKDLNSAYKIDNQLHYALR; synthetic novel tartgeting peptide IT-164),"A. naeslundii, F. nucleatum,; also recorded: P. gingivalis; also recorded: S. epidermidis,; also recorded: S. gordonii, S. mitis, S. mutans,; also recorded: S. oralis, S. salivarious,; also recorded: S. sanguinis"
14,1T-165 (CYDSFDFSIFVTFANRMKLSVGS; synthetic novel tartgeting peptide IT-165),"A. naeslundii, F. nucleatum,; also recorded: P. gingivalis; also recorded: S. epidermidis,; also recorded: S. gordonii, S. mitis, S. mutans,; also recorded: S. oralis, S. salivarious,; also recorded: S. sanguinis"
15,1T-166 (AQSAGQIKRKSKVRIHV; synthetic novel tartgeting peptide IT-166),"A. naeslundii, F. nucleatum,; also recorded: P. gingivalis; also recorded: S. epidermidis,; also recorded: S. gordonii, S. mitis, S. mutans,; also recorded: S. oralis, S. salivarious,; also recorded: S. sanguinis"
16,1T-167 (SRMSEHSPAGLVFEVGPMDKGSFIILDSYHPTVKK; synthetic novel tartgeting peptide IT-167),"A. naeslundii, F. nucleatum,; also recorded: P. gingivalis; also recorded: S. epidermidis,; also recorded: S. gordonii, S. mitis, S. mutans,; also recorded: S. oralis, S. salivarious,; also recorded: S. sanguinis"
17,1T-168 (ELHRIMSTEKIGAVTKMNFDTAPIMSILPIDIYPKEVGIGS; synthetic novel tartgeting peptide IT-168),"A. naeslundii, F. nucleatum,; also recorded: P. gingivalis; also recorded: S. epidermidis,; also recorded: S. gordonii, S. mitis, S. mutans,; also recorded: S. oralis, S. salivarious,; also recorded: S. sanguinis"
